Results: patent publication US6461997B1, “Triazole sulfones having herbicidal activity” (Monsanto Technology LLC, priority 1999, dated 2002)

Assays:
[1] = tested on: AMARE (redroot pigweed); assay: Pre-emergence herbicidal activity, warm season; assay type: in vivo, Amaranthus retroflexus; conditions: for Pre-emergence activity (GR80) AMARE: GR80 = lowest tested rate (300, 100, 30, 10 g/ha) with 80% or greater inhibition, approx. 14 days after treating, 30/21° C.
Outline: (§1)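 GR80 values derive from percent inhibition relative to untreated plants, read roughly 14 days after sowing and pre-emergence soil-surface treatment (compound in 50:50 acetone/water; rates typically 10, 30, 100, 300 g/ha). Warm-season weeds grew at 30/21° C day/night, cool-season ones at 18/13° C; an asterisk marks activity without reaching 80% at the highest rate.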

[2] = tested on: SETFA (giant foxtail); assay: Pre-emergence herbicidal activity, warm season; assay type: in vivo, Setaria faberi; conditions: for Pre-emergence activity (GR80) SETFA: GR80 = lowest tested rate (300, 100, 30, 10 g/ha) with 80% or greater inhibition, approx. 14 days after treating, 30/21° C.
Outline: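 Seeds sown in sterilised fertilised topsoil received surface-applied compound in 50:50 acetone/water, typically at 300, 100, 30 and 10 g/ha, then greenhouse-grown at 30/21° C (warm-season species) or 18/13° C (cool-season species). Percent inhibition versus untreated plants was scored at about 14 days, giving GR80; an asterisk marks activity short of 80% at the top rate.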

[3] = tested on: LAMPU (purple deadnettle); assay: Pre-emergence herbicidal activity, cool season; assay type: in vivo, Lamium purpureum; conditions: lowest tested rate with 80% or greater inhibition; rates 300, 100, 30, 10 g/ha; about 14 days
Outline: as §1

[4] = tested on: GALAP (catchweed bedstraw); assay: Pre-plant incorporated (PPI) herbicidal activity, cool season; assay type: in vivo, Galium aparine; conditions: for inhibition at 30 g/ha / inhibition at 100 g/ha / inhibition at 300 g/ha / inhibition at 900 g/ha / inhibition at 10 g/ha: Galium aparine, read-out: Percent inhibition GALAP; for inhibition at 30 g/ha / inhibition at 100 g/ha / inhibition at 300 g/ha / inhibition at 900 g/ha / Percent inhibition GALAP / inhibition at 10 g/ha: weed, PPI application; for PPI activity GR80, GALAP: pre-plant incorporated, lowest tested rate with 80% or greater inhibition, about 14 days
Protocol: (§2) In another set of tests, the pre-plant incorporated (PPI) activity of compounds of this invention was evaluated on the same species as for the pre-emergence tests described above. In the PPI tests the following procedure, designed to simulate PPI application, was used.
(§3) A pre-prepared topsoil mixture (described above) was placed in a pot and compacted to a depth of 1.0 to 1.25 cm from the top of the pot. Seeds of each of several monocotyledonous and dicotyledonous annual plant species were placed on top of the soil. A sufficient quantity of soil to cover the seeds and level fill the pot was weighed into an open container. A known amount of the test compound was dissolved or suspended in an organic solvent and applied by spraying to this cover soil. The cover soil was thoroughly mixed to distribute the test compound throughout the cover soil, and was then applied as a cover layer over the seeds. Untreated soil was used as a cover layer for control pots. After treatment the plants were placed in a greenhouse where they received 0.64 cm of overhead irrigation. All subsequent watering consisted of a light overhead mist and/or subirrigation as needed for germination and growth. Tables 9 and 10 below relate to warm season plant species which were placed after pre-emergence treatment in a greenhouse with a 30/21° C. day/night temperature regime. Tables 11 and 12 below relates to cool season plant species placed after pre-emergence treatment in a greenhouse or growth chamber with an 18/13° C. day/night temperature regime. Only the compounds of Examples 1, 6, 8, 11, 13 and 15-20 were included in PPI tests.
(§4) Approximately 14 days after planting and treating, the plants were observed and herbicidal efficacy recorded as percent inhibition by comparison with untreated plants.

[5] = tested on: LOLMG (annual ryegrass); assay: as above; assay type: in vivo, Lolium multiflorum; conditions: for inhibition at 30 g/ha / inhibition at 100 g/ha / inhibition at 300 g/ha / inhibition at 900 g/ha / inhibition at 10 g/ha: Lolium multiflorum, read-out: Percent inhibition LOLMG; for inhibition at 30 g/ha / inhibition at 100 g/ha / inhibition at 300 g/ha / inhibition at 900 g/ha / Percent inhibition LOLMG / inhibition at 10 g/ha: weed, PPI application; for PPI activity GR80, LOLMG: pre-plant incorporated, lowest tested rate with 80% or greater inhibition, about 14 days
Protocol: as §2, §3, §4

[6] = tested on: LOLMG (annual ryegrass); assay: Post-emergence herbicidal activity, cool season; assay type: in vivo, Lolium multiflorum; conditions: abraded plants sprayed at 300, 100, 30 and 10 g/ha; about 14 days after treatment
Outline: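 Seeds sown in topsoil, covered with 50% topsoil/50% Rediearth™, subirrigated. At 9 to 14 days, foliage abraded, then sprayed at 300, 100, 30 or 10 g/ha in acetone/water 50:50. Plants held at 18/13° C. day/night, rated for % inhibition at ~14 days, GR80 assigned.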

| SMILES | Pre-emergence activity (GR80) AMARE [1] | Pre-emergence activity (GR80) SETFA [2] | Pre-emergence activity GR80, LAMPU [3] | inhibition at 30 g/ha ([4]; 30 g/ha) | inhibition at 100 g/ha ([4]; 100 g/ha) | inhibition at 300 g/ha ([4]; 300 g/ha) | inhibition at 900 g/ha ([4]; 900 g/ha) | PPI activity GR80, GALAP [4] | inhibition at 30 g/ha ([5]; 30 g/ha) | inhibition at 100 g/ha ([5]; 100 g/ha) | inhibition at 300 g/ha ([5]; 300 g/ha) | inhibition at 900 g/ha ([5]; 900 g/ha) | PPI activity GR80, LOLMG [5] | Post-emergence activity GR80, LOLMG [6] | inhibition at 10 g/ha ([4]; 10 g/ha) | inhibition at 10 g/ha ([5]; 10 g/ha) | further results |
| --- | --- | --- | --- | --- | --- | --- | --- | --- | --- | --- | --- | --- | --- | --- | --- | --- | --- |
| CCN(CC)C(=O)n1cnc(S(=O)(=O)C(F)(F)Br)n1 [Example 1, 3-(bromodifluoromethylsulfonyl)-1-(N,N-diethylcarbamoyl)-1,2,4-triazole] | 30 g/ha | 100 g/ha | 30 g/ha | 70% | 100% | 100% | 100% | 100 g/ha | 95% | 95% | 100% | 100% | 300 g/ha | [empty] |  |  | inhibition at 10 g/ha ([1]; Amaranthus retroflexus, pre-emergence application, 10 g/ha, read-out: Percent inhibition, weed AMARE): 0%; inhibition at 30 g/ha ([1]; Amaranthus retroflexus, pre-emergence application, 30 g/ha, read-out: Percent inhibition, weed AMARE): 0%; inhibition at 100 g/ha ([1]; Amaranthus retroflexus, pre-emergence application, 100 g/ha, read-out: Percent inhibition, weed AMARE): 60%; inhibition at 300 g/ha ([1]; Amaranthus retroflexus, pre-emergence application, 300 g/ha, read-out: Percent inhibition, weed AMARE): 50%; inhibition at 900 g/ha ([1]; Amaranthus retroflexus, pre-emergence application, 900 g/ha, read-out: Percent inhibition, weed AMARE): 90%; inhibition at 10 g/ha ([2]; Setaria faberi, pre-emergence application, 10 g/ha, read-out: Percent inhibition, weed SETFA): 0%; inhibition at 30 g/ha ([2]; Setaria faberi, pre-emergence application, 30 g/ha, read-out: Percent inhibition, weed SETFA): 0%; inhibition at 100 g/ha ([2]; Setaria faberi, pre-emergence application, 100 g/ha, read-out: Percent inhibition, weed SETFA): 40%; inhibition at 300 g/ha ([2]; Setaria faberi, pre-emergence application, 300 g/ha, read-out: Percent inhibition, weed SETFA): 100%; inhibition at 900 g/ha ([2]; Setaria faberi, pre-emergence application, 900 g/ha, read-out: Percent inhibition, weed SETFA): 100% |
| CCSC(F)(F)S(=O)(=O)c1ncn(C(=O)N(CC)CC)n1 [Example 8, 1-(N,N-diethylcarbamoyl)-3-[difluoro(ethylthio)methylsulfonyl]-1,2,4-triazole] | 100 g/ha | 100 g/ha | [empty] | 0% | 100% | 100% | 100% | 100 g/ha | 35% | 100% | 100% | 100% | 100 g/ha | [empty] |  |  |  |
| CCN(CC)C(=O)n1cnc(S(=O)(=O)C(F)(F)SC)n1 [Example 9] | 300 g/ha | 100 g/ha | 300 g/ha |  |  |  |  |  |  |  |  |  |  | [empty] |  |  | Percent inhibition GALAP ([4]; 30 g/ha): 100%; Percent inhibition GALAP ([4]; 100 g/ha): 70%; Percent inhibition GALAP ([4]; 300 g/ha): 100%; Percent inhibition GALAP ([4]; 900 g/ha): 100%; Percent inhibition LOLMG ([5]; 30 g/ha): 60%; Percent inhibition LOLMG ([5]; 100 g/ha): 100%; Percent inhibition LOLMG ([5]; 300 g/ha): 100%; Percent inhibition LOLMG ([5]; 900 g/ha): 100% |
| C=C(Br)CC(F)(F)S(=O)(=O)c1ncn(C(=O)N(CC)CC)n1 [Example 19] | * (activity observed, at least at highest rate, but <80% inhibition) | 300 g/ha | 30 g/ha | 100% | 100% | 50% | 100% | 100 g/ha | 70% | 100% | 100% | 100% | 300 g/ha | [empty] | 85% | 30% |  |
| C=CCC(F)(F)S(=O)(=O)c1ncn(C(=O)N(CC)CC)n1 [Example 17, 1-(N,N-diethylcarbamoyl)-3-[(1,1-difluoro-3-butenyl)sulfonyl]-1,2,4-triazole] | 300 g/ha | 100 g/ha | 100 g/ha | 60% | 40% | 80% | 100% | 100 g/ha | 60% | 95% | 100% | 100% | 100 g/ha | [empty] | 0% | 45% |  |
| CCN(CC)C(=O)n1cnc(S(=O)(=O)C(F)(F)SCc2ccccc2)n1 [Example 10] | 100 g/ha | 100 g/ha | 100 g/ha |  |  |  |  |  |  |  |  |  |  | [empty] |  |  | Percent inhibition GALAP ([4]; 10 g/ha): 0%; Percent inhibition GALAP ([4]; 30 g/ha): 0%; Percent inhibition GALAP ([4]; 100 g/ha): 80%; Percent inhibition GALAP ([4]; 300 g/ha): 50%; Percent inhibition GALAP ([4]; 900 g/ha): 100%; Percent inhibition LOLMG ([5]; 10 g/ha): 0%; Percent inhibition LOLMG ([5]; 30 g/ha): 0%; Percent inhibition LOLMG ([5]; 100 g/ha): 65%; Percent inhibition LOLMG ([5]; 300 g/ha): 100%; Percent inhibition LOLMG ([5]; 900 g/ha): 99% |
| C=C(C)CC(F)(F)S(=O)(=O)c1ncn(C(=O)N(CC)CC)n1 [Example 18] | 300 g/ha | 100 g/ha | 300 g/ha | 60% | 70% | 100% | 100% | 100 g/ha | 60% | 50% | 100% | 100% | 100 g/ha | [empty] | 70% | 20% |  |
